Assay results from ChEMBL document CHEMBL1201862, “PubChem BioAssay data set” (2004).
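These data come from cells grown in 96-well plates and exposed to compound for 48 hours at five concentrations. GI50 is the concentration that inhibits growth by half.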 Active and inactive are the calls of the source. Rule as the data show it: active = GI50 up to about 1.1 µM and inactive = higher.

How the values were obtained:
Assay in all cases: NCI tumour cell line growth inhibition, 48 h
SF-539 = system: SF-539
OVCAR-3 = system: OVCAR-3
Malme-3M = system: Malme-3M
LOX IMVI = system: LOX IMVI
NCI/ADR-RES = system: NCI/ADR-RES
HCC 2998 = system: HCC 2998
786-0 = system: 786-0
SK-MEL-5 = system: SK-MEL-5
EKVX = system: EKVX
MCF7 = system: MCF7
SNB-75 = system: SNB-75
SNB-19 = system: SNB-19
UACC-62 = system: UACC-62
HCT-15 = system: HCT-15
HT-29 = system: HT-29
HOP-92 = system: HOP-92
HCT-116 = system: HCT-116
NCI-H460 = system: NCI-H460
MDA-MB-231 = system: MDA-MB-231
UACC-257 = system: UACC-257

| SMILES | GI50 (SF-539) | GI50 (OVCAR-3) | GI50 (Malme-3M) | GI50 (LOX IMVI) | GI50 (NCI/ADR-RES) | GI50 (HCC 2998) | GI50 (786-0) | GI50 (SK-MEL-5) | GI50 (EKVX) | GI50 (MCF7) | GI50 (SNB-75) | GI50 (SNB-19) | GI50 (UACC-62) | GI50 (HCT-15) [µM] | GI50 (HT-29) | GI50 (HOP-92) | GI50 (HCT-116) | GI50 (NCI-H460) | GI50 (MDA-MB-231) | GI50 (UACC-257) |
| --- | --- | --- | --- | --- | --- | --- | --- | --- | --- | --- | --- | --- | --- | --- | --- | --- | --- | --- | --- | --- |
| CC1(C)SC2C(C(=O)O)N=C(Cc3ccccc3)N2C1C(=O)O (stereo not given) | 30.8 µM (inactive) | 49 µM (inactive) | 62.2 µM (inactive) | 25.5 µM (inactive) | 33.9 µM (inactive) | 25.3 µM (inactive) | 19.8 µM (inactive) | > 100 µM (inactive) | 3.97 µM (inactive) | 34.2 µM (inactive) | 19.6 µM (inactive) | 32.5 µM (inactive) | > 100 µM (inactive) | 81.5 | 13.6 µM (inactive) | 42.8 µM (inactive) | 24.9 µM (inactive) | 45.1 µM (inactive) | 43.3 µM (inactive) | 21.9 µM (inactive) |
| S=C(N/N=C/c1ccccn1)Nc1ccc(Cl)cc1 | 0.364 µM (active) | < 0.01 µM (active) | 0.145 µM (active) | 0.06 µM (active) | 0.0366 µM (active) | 0.59 µM (active) | 0.0601 µM (active) | 0.11 µM (active) | 0.0682 µM (active) | 0.0489 µM (active) | 0.236 µM (active) | 0.483 µM (active) | 0.114 µM (active) | 0.0398 | 0.0426 µM (active) | 0.282 µM (active) | 0.0449 µM (active) | 0.0635 µM (active) | 0.0542 µM (active) | 0.04 µM (active) |
| CC(C)(C)OC(=O)NCC(c1c[nH]c2cc(Br)ccc12)c1c[nH]c2cc(Br)ccc12 | 20.2 µM (inactive) | 15.7 µM (inactive) | 17.2 µM (inactive) | 17.5 µM (inactive) | 17.7 µM (inactive) | 18.9 µM (inactive) | 18.6 µM (inactive) | 17.3 µM (inactive) | 16.2 µM (inactive) | 18.6 µM (inactive) | 21.9 µM (inactive) | 21.8 µM (inactive) | 16 µM (inactive) | 15.1 | 16.9 µM (inactive) | 14.9 µM (inactive) | 17 µM (inactive) | 21.2 µM (inactive) | 18 µM (inactive) | 19.9 µM (inactive) |
| N#CC(c1ccccc1)N(CCCCCCN(C(=O)c1ccccc1)C(C#N)c1ccccc1)C(=O)c1ccccc1 (stereo not given) | 41.5 µM (inactive) | 39 µM (inactive) | 35.8 µM (inactive) | 29.3 µM (inactive) | 16 µM (inactive) | 17.1 µM (inactive) | 33.7 µM (inactive) | 17.9 µM (inactive) | 50.4 µM (inactive) | 28.1 µM (inactive) | 52.4 µM (inactive) | 44.2 µM (inactive) | 26.3 µM (inactive) | 31.3 | 21.8 µM (inactive) | 16.5 µM (inactive) | 25.1 µM (inactive) | 27.6 µM (inactive) | 47.6 µM (inactive) | 22.8 µM (inactive) |
| Cc1cc(Cl)nc2nc(Cl)c(N)cc12 | 4.71 µM (inactive) | 1.87 µM (inactive) | 9.53 µM (inactive) | 1.91 µM (inactive) | 14.8 µM (inactive) | 1.86 µM (inactive) | 2.86 µM (inactive) | 10.9 µM (inactive) | 3.48 µM (inactive) | 1.63 µM (inactive) | 10.6 µM (inactive) | 4.95 µM (inactive) | 2.37 µM (inactive) | 1.9 | 2.15 µM (inactive) | 2.18 µM (inactive) | 2.48 µM (inactive) | 2.38 µM (inactive) | 3.48 µM (inactive) | 1.87 µM (inactive) |
| Cc1nc2ccc(Cl)cc2c(Cl)c1CCCl | > 100 µM (inactive) | 48 µM (inactive) | > 100 µM (inactive) | 43.6 µM (inactive) | 33.5 µM (inactive) | 30.7 µM (inactive) | > 100 µM (inactive) | 25.3 µM (inactive) | 51.3 µM (inactive) | 30.6 µM (inactive) | 29.4 µM (inactive) | 45.4 µM (inactive) | 28.1 µM (inactive) | 43.1 | 27.2 µM (inactive) | 33.5 µM (inactive) | 25.4 µM (inactive) | 43.4 µM (inactive) | 83.6 µM (inactive) | 74 µM (inactive) |
| CC1CNC(c2ccc(-c3nc(-c4ccc(C5=NC(C)CN5)cc4)nc(N(C)C)n3)cc2)=N1 (stereo not given) | 0.855 µM (active) | 1.79 µM (inactive) | 3.08 µM (inactive) | 1.41 µM (inactive) | 22 µM (inactive) | 1.83 µM (inactive) | 1.28 µM (inactive) | 3.8 µM (inactive) | 2.54 µM (inactive) | 1.42 µM (inactive) | 1.82 µM (inactive) | 1.75 µM (inactive) | 1.73 µM (inactive) | 16.6 | 1.79 µM (inactive) | 3.14 µM (inactive) | 0.964 µM (active) | 3.27 µM (inactive) | 1.31 µM (inactive) | 3.08 µM (inactive) |
| COCCOC1=C(Cl)C(=O)c2c(O)ccc(O)c2C1=O | 2.16 µM (inactive) | 1.09 µM (active) | 0.955 µM (active) | 1.16 µM (inactive) | 2.84 µM (inactive) | 8.2 µM (inactive) | 1.62 µM (inactive) | 1.95 µM (inactive) | 4.97 µM (inactive) | 1.21 µM (inactive) | 5.55 µM (inactive) | 14.6 µM (inactive) | 4.81 µM (inactive) | 1.21 | 2.37 µM (inactive) | 0.726 µM (active) | 0.979 µM (active) | 5.52 µM (inactive) | 1.41 µM (inactive) | 1.96 µM (inactive) |
| CC(=O)OCC(OC(C)=O)C(OC(C)=O)C(/C=N\Nc1nc2ccccc2c(=O)[nH]1)=N\Nc1nc2ccccc2c(=O)[nH]1 (stereo not given) | > 100 µM (inactive) | > 100 µM (inactive) | > 100 µM (inactive) | > 100 µM (inactive) | > 100 µM (inactive) | 19.1 µM (inactive) | > 100 µM (inactive) | > 100 µM (inactive) | > 100 µM (inactive) | > 100 µM (inactive) | > 100 µM (inactive) | > 100 µM (inactive) | > 100 µM (inactive) | > 100 | > 100 µM (inactive) | > 100 µM (inactive) | > 100 µM (inactive) | 22.3 µM (inactive) | > 100 µM (inactive) | 17.3 µM (inactive) |
| N#Cc1c2ccc([N+](=O)[O-])cc2c(=O)n2c1[nH]c1ccc(C(F)(F)F)cc12 | > 100 µM (inactive) | 18.2 µM (inactive) | 41 µM (inactive) | 6.56 µM (inactive) | 23.2 µM (inactive) | 15.2 µM (inactive) | 40.6 µM (inactive) | 29.4 µM (inactive) | > 100 µM (inactive) | 63.4 µM (inactive) | 27.3 µM (inactive) | 10.8 µM (inactive) | 42.7 µM (inactive) | 16.1 | 11.2 µM (inactive) | 12.9 µM (inactive) | 10.1 µM (inactive) | 21.1 µM (inactive) | 22.2 µM (inactive) | > 88.7 µM (inactive) |
